Source: patent publication US6071919A, “Zwitterionic compositions and methods as biological response modifiers” (priority 1998, dated 2000)
Entries after “also recorded” stand apart in the source; their conditions may differ.

Key:
alkaline phosphatase = test: Decrease of alkaline phosphatase in mammals; type: in vivo
Description: It is discovered that zwitterionic compounds, such as HEPES, decrease the production of alkaline phosphatase in mammals.

cancer = test: Treatment of cancer patients with HEPES alone; type: in vivo, human; conditions: 300 mg/kg to 1000 mg/kg daily
[1] = Treatment of rheumatoid arthritis patients with HEPES alone; type: in vivo, human; conditions: 300 mg/kg to 1000 mg/kg daily
Description: (§1) To date, more than twenty-five patients have been treated with 300 mg/kg to 1000 mg/kg HEPES daily (no other agents or additional compositions).

[2] = Treatment of myasthenia gravis patients with HEPES alone; type: in vivo, human; conditions: 300 mg/kg to 1000 mg/kg daily
Description: as §1

[3] = system: bone marrow / extramedullary hematopoiesis; test: Example Seven: bone marrow and liver biopsy in healthy beagle dogs; type: in vivo; conditions: 18 mg/kg i.v. one week, then 40 mg/kg one week
Description: Five healthy beagle dogs (males and females) were given 18 mg/kg intravenously of zwitterionic piperazine compound (HEPES) for one week. The dose was increased to 40 mg/kg for one week. […] This is also consistent with immune stimulating effect.

[4] = Example Eight: patient with organophosphate induced polyneuropathy; type: in vivo, human
Description: A person with organophosphate induced polyneuropathy (such as found in Agent Orange toxicity and/or Gulf War Syndrome) had significant numbness in both legs, decreased sensation in both hands, and decreased proprioception was given 8 mg/kg orally of zwitterionic piperazine (HEPES) for two weeks.

HIV = test: Example Ten: patient with HIV infection and HIV associated polyneuropathy; type: in vivo; conditions: 5000 mg i.v. daily, after thirty days
Description: A person with documented HIV infection had HIV associated polyneuropathy. They could not raise their legs without assistance. They were given 5000 mg intravenously of zwitterionic piperazine (HEPES) daily for thirty days. […] Their cluster determinates had risen and sensation and proprioception were improved.

[5] = system: beta-hemolytic streptococci; test: Example Twelve: MIC of antibiotics with and without HEPES, streptococci; type: cell-based; conditions: agar gel cultures, colony counts of 10^6, with vs without HEPES
Description: (§2) Routine agar gel cultures are inoculated with beta-hemolytic streptococci and gram […] staphylococci. The cultures were raised to colony counts of 10^6. The mean inhibitory concentration (MIC) with susceptible antibiotics was measured with and without the presence of zwitterionic piperazine (HEPES).

[6] = system: gram negative staphylococci; test: Example Twelve: MIC of antibiotics with and without HEPES, staphylococci; type: cell-based; conditions: agar gel cultures, colony counts of 10^6, with vs without HEPES
Description: as §2

[7] = Antibiotic efficacy in vivo
[8] = Example Fourteen: patient with ventricular irritability; type: in vivo, human; conditions: 3000 mg orally for seven days; baseline 4-6 per minute
Description: A person with ventricular irritability, 4-6 premature ventricular contractions per minute (PVCs), was not controlled with Prancetyl, Quinidine, or beta blockade. They were taking no medicines and was started on 3000 mg zwitterionic piperazine orally for seven days. At the end of seven days, the patient had only occasional PVC (1 every 10 minutes).

[9] = Example Fifteen: patient with seizure disorder, EEG; type: in vivo, human; conditions: 5000 mg orally (2500 mg twice a day), two weeks
Description: A person with a longstanding history of seizure disorder was poorly controlled and had recurrent seizures while taking Dilantin and phenobarbital. They started on 5000 mg zwitterionic piperazine orally (2500 mg twice a day) for two weeks. […] The zwitterionic piperazine (HEPES) has membrane stabilizing properties, is effective for anti-arrhythmic therapy, and is effective anti-seizure therapy.

[10] = system: acute hymphocytic leukemia (ALL); test: Example Sixteen: patient with acute lymphocytic leukemia in blast crisis; type: in vivo, human; conditions: for Hemoglobin (Hgb): pre-infusion 10.5; for Blasts: pre-infusion 45%; for Platelets: pre-infusion 31,000; for White Blood Cells (WBC): pre-infusion 38,000
Description: A person presented with acute hymphocytic leukemia (ALL).
They were started on zwitterionic piperazine therapy (HEPES).
Her baseline laboratory data was obtained following a blood transfusion before starting the HEPES;

[11] = Observations in HEPES-treated dogs; type: in vivo
cancer tumors = test: Macrophage infiltration of tumors; type: in vivo, dogs
Description: (§3) The amphoteric zwitterion compounds may be employed as active ingredients with other active ingredients, as well as other components and carriers typically used in pharmaceutical compositions; such as, but not limited to: buffers, stabilizers, dyes, antioxidants, dispersing agents, fillers, surfactants, silicones, bulking agents, pigments, salts, human or animal (natural or synthetic) cells and cellular components, antibiotics, drugs, vitamins, amino acids, proteins, serum and various other compounds and combinations thereof in varying amounts.

[12] = system: giant platelets and histiocytes; test: Giant platelets and histiocytes on peripheral smear; type: in vivo, animals; conditions: blood / peripheral smear
Description: as §3

[13] = system: bone marrow / extramedullary hematopoiesis; test: Bone marrow and extramedullary hematopoiesis, in vivo tests; set-up: species or system dogs and humans
Description: Further, the zwitterionic compounds reduce the mean inhibitory concentration (MIC) of susceptible […] in culture (in vitro) and enhances antibiotic activity in vivo. The zwitterionic compound may be used alone or with a carrier, such as sterile water or a saline solution. Enhancement and inducement of extramedullary hematopoiesis has been found in amounts of HEPES administered in an amount of about 18-20 mg/kilograms or greater for e.g. 40 mg/kg of body weight in dogs with daily intravenous injections over a defined time period of 1-2 weeks.

[14] = ADA: data of Schwarzenbach et al. (1955); cited from earlier work
[15] = ADA: data of Schwarzenbach et al. (1955); cited from earlier work; remark: listed apart in the source
[16] = cited from earlier work
[17] = 13.0 mg/kg I.V. increased to 80 mg/kg I.V.
[18] = intravenous and oral application

O=S(=O)(O)CCN1CCN(CCO)CC1 [HEPES, N-2 Hydroxyethylpiperazine-N'-2 Ethane Sulfonic Acid]
fall of baseline alkaline phosphatase levels (alkaline phosphatase; in excess of 100 mg/kg to 500 mg/kg or greater): fall by a factor of two or greater
alkaline phosphatase measurability (alkaline phosphatase; in excess of 100 mg/kg to 500 mg/kg or greater, some cases): not measurable by standard laboratory methods
concentration at which decrease of alkaline phosphatase appears to start (alkaline phosphatase; mammals): approximately 12 mg/kg
decrease in tumor volume and/or tumor activity (cancer; all patients with cancer): 25%-50%
cancer pain response (cancer; all patients with cancer pain): All patients with cancer pain have responded with pain reduction
reduction in disease activity [1]: 25%-50%
reduction in disease activity [2]: 25%-50%
circulating histiocytes and giant platelets ([3]; all animals): increase in circulating histiocytes and giant platelets
bone marrow biopsy ([3]; all dogs): the bone marrow became hypercellular
liver biopsy (extramedullary hematopoiesis) ([3]; all dogs): presence of megakaryocyte production consistent with induced extramedullary hematopoiesis
myelin integrity / organic phosphate induced polyneuropathy ([4]; 8 mg/kg orally): reversed the effect of organic phosphate induced polyneuropathy in the patient and restored myelin integrity
sensation and proprioception ([4]; 8 mg/kg orally, end of two weeks): sensation and proprioception had returned
sensation and proprioception after reinstatement ([4]; two weeks after reinstatement): sensation and proprioception were again restored
symptoms after stopping the medicine ([4]; two weeks after stop): symptoms returned in two weeks
Total viral load determined by PCR (HIV): decreased
ability to raise legs (HIV): could raise their legs without assistance
cluster determinates (HIV): had risen
sensation and proprioception (HIV): improved
decrease in MIC of each antibiotic in culture (in vitro) [5]: more than 10%
decrease in MIC of each antibiotic in culture (in vitro) [6]: more than 10%
antibiotic efficacy in vivo [7]: enhanced the antibiotic efficacy in vivo
premature ventricular contractions (PVC) [8]: 1 every 10 minutes
EEG focal activity [9]: significantly decreased focal activity
blast crisis [10, 17]: cessation of the blasts crisis
platelet destruction [10, 17]: Platelet destruction has ceased
Hemoglobin (Hgb) ([10]; Day 3 of HEPES treatment): 8.5 g/dL
Blasts ([10]; Day 3 of HEPES treatment): 45%
Platelets ([10]; Day 3 of HEPES treatment): 14,000
White Blood Cells (WBC) ([10]; Day 3 of HEPES treatment): 53,000
Hemoglobin (Hgb) ([10]; Day 7 of HEPES treatment): 11.6 g/dL
Blasts ([10]; Day 7 of HEPES treatment): 5.0%
Platelets ([10]; Day 7 of HEPES treatment): 17,000
White Blood Cells (WBC) ([10]; Day 7 of HEPES treatment): 6,300
behaviour following injections ([11]; all dogs): all dogs became calm following injections
hematomas at the injection sites ([11]; all treated dogs): rapid resolution of hematomas at the injection sites
diuresis ([11]; certain dosages): marked diuresis at certain dosages
vascular integrity ([11]; treated groups): strong evidence of improved vascular integrity
respiratory infections ([11]; while being treated, many in untreated group did): no animals in the treated group had any respiratory infections while being treated
macrocytic invasion of tumors (cancer tumors; administered to mammals): macrocytic invasion of tumors
macrophage infiltration of cancer tumors (cancer tumors; dogs): macrophage infiltration of cancer tumors in dogs
giant platelets and histiocytes [12]: production of giant platelets and histiocytes; also recorded: produces giant platelets and histiocytes in blood
minimal effective dose ([13]; Canis lupus familiaris, iv, dogs, daily i.v., 1-2 weeks, "or greater", read-out: amount of HEPES giving enhancement and inducement of extramedullary hematopoiesis): 18 to 20 mg/kg
extramedullary hematopoiesis [13, 18]: induce extramedullary hematopoiesis in patients
hypercellular bone marrow [13, 18]: induce hypercellular bone marrow
Metal-Buffer Binding Constants Log KM, Ca^2+ [14]: Negl
Metal-Buffer Binding Constants Log KM, Cu^2+ [15]: Negl
Saturated Solution at 0° [16]: 2.25 M
